These are literature values, as cited in patent publication US5399700A, “Method for preparing enteric-coated oral drugs containing acid-unstable compounds” (Sunkyong Industries Co., Ltd., priority 1991, dated 1995).

For data set [1] the following is noted: Table 9.
Assay in data set [2]: not given
The source holds these as a separate data set.

Read-outs that look alike come from different tables or passages of the source.

As for `CC(C)CN` [Isobutylamine], in data set [1], the pKa is 10.42.
Consider `CCCN` [Propylamine], for which the pKa in data set [1] was 10.57.
On to `CC(C)(C)N` [Tert-butylamine], for which the pKa in data set [1] is given as 10.87.
Consider `CCCCN(CCCC)CCCC` [Tributylamine], for which the pKa in data set [1] is given as 10.87.
Take `COc1ccc2[nH]c([S+]([O-])Cc3ncc(C)c(OC)c3C)nc2c1` (stereo not shown) [omeprazole]: the half-life (medium of below pH 4) is 0.167 h, the half-life (pH 6.8) was 18 h and the half-life result (pH 11) is on record as “about 300 days”.
`OC[C@H]1O[C@@H]2O[C@H]3[C@H](O)[C@@H](O)[C@@H](O[C@H]4[C@H](O)[C@@H](O)[C@@H](O[C@H]5[C@H](O)[C@@H](O)[C@@H](O[C@H]6[C@H](O)[C@@H](O)[C@@H](O[C@H]7[C@H](O)[C@@H](O)[C@@H](O[C@H]1[C@H](O)[C@H]2O)O[C@@H]7CO)O[C@@H]6CO)O[C@@H]5CO)O[C@@H]4CO)O[C@@H]3CO` [α-CD, α-cyclodextrin]: the “Ring-opening Half-life” value in data set [2] (1n hcl) is 6.2 h.
With `OC[C@H]1O[C@@H]2O[C@H]3[C@H](O)[C@@H](O)[C@@H](O[C@H]4[C@H](O)[C@@H](O)[C@@H](O[C@H]5[C@H](O)[C@@H](O)[C@@H](O[C@H]6[C@H](O)[C@@H](O)[C@@H](O[C@H]7[C@H](O)[C@@H](O)[C@@H](O[C@H]8[C@H](O)[C@@H](O)[C@@H](O[C@H]1[C@H](O)[C@H]2O)O[C@@H]8CO)O[C@@H]7CO)O[C@@H]6CO)O[C@@H]5CO)O[C@@H]4CO)O[C@@H]3CO` [β-CD, β-cyclodextrin], the “Ring-opening Half-life” value in data set [2] (60° C., 1N HCl) is 5.4 h.
`OC[C@H]1O[C@@H]2O[C@H]3[C@H](O)[C@@H](O)[C@@H](O[C@H]4[C@H](O)[C@@H](O)[C@@H](O[C@H]5[C@H](O)[C@@H](O)[C@@H](O[C@H]6[C@H](O)[C@@H](O)[C@@H](O[C@H]7[C@H](O)[C@@H](O)[C@@H](O[C@H]8[C@H](O)[C@@H](O)[C@@H](O[C@H]9[C@H](O)[C@@H](O)[C@@H](O[C@H]1[C@H](O)[C@H]2O)O[C@@H]9CO)O[C@@H]8CO)O[C@@H]7CO)O[C@@H]6CO)O[C@@H]5CO)O[C@@H]4CO)O[C@@H]3CO` [γ-CD]: the “Ring-opening Half-life” value in data set [2] (60° C., 1N HCl) was 3.0 h.

As a reminder, the pKa is the pH at which an ionisable group is half protonated. By half-life is commonly meant how long it takes for the measured level to halve.
